{"source": "patent US20100317613A1", "about": "“ACTIVITY ENHANCER FOR DETOXIFYING ENZYME” (TAKARA BIO INC., priority 2006, published 2010)", "key": {"mouse": {"tested_on": "mouse", "experiment": "Single oral dose toxicity in mouse", "assay_type": "in vivo", "conditions": "oral, 2,000 mg/kg body weight as a single dose", "description": "For example, in the case of oral administration, there is no fatal case when agarobiose, agarotetraose, agarohexaose, agarooctaose, a mixture thereof, or DGE is administered to a mouse in an amount of 2,000 mg/kg body weight as a single dose. Further, there is no fatal case when the above-described active ingredient is administered orally as a single dose of 2,000 mg/kg body weight to a rat."}, "Quinone Reductase (QR)": {"tested_on": "Quinone Reductase (QR)", "experiment": "Quinone reductase (QR) activity in Hepa1c1c7 cells", "assay_type": "cell-based", "conditions": "for QR activity (−fold) / QR activity (fold vs water control): relative to water control; for QR activity (fold vs water control): Table 3 (QR activity test), 24 hours", "description": "A QR activity was measured by a partially modified method from a method described in Hans J. Prochaska et al., Analytical Biochemistry 169, 328-336 (1988). Hepa1c1c7 cells were suspended in a Dulbecco-modified Eagle medium containing 10% of fetal bovine serum and 1% of penicillin-streptomycin at 4×10^5 cells/ml. To each well of a 96 well-microtiter plate, 0.2 ml of the cell suspension was added, and cultured at 37° C. overnight in the presence of 5% carbon dioxide gas. Then, the medium in the wells was replaced with a Dulbecco-modified Eagle medium. To each well, 0.4 μl of a solution of a test substance in water was added and then cultured for 24 hours. The agarobiose obtained in Preparation Example 1 and a commercially available agaro-oligosaccharide (trade name: Agaoligo) were used as test substances. For a negative control, water was added in place of a test substance. After completion of the culture, the medium was removed and the cells were washed with a phosphate buffer. Then, 0.1 ml of a cell-lysis solution (2 mM EDTA (pH 7.8), 1% NP-40) was added and incubated at 37° C. for 10 minutes to obtain an enzyme solution. To 25 it of the enzyme solution, 100 it of a reaction solution (25 mM Tris-HCl (pH 7.4), 0.67% BSA, 0.01% Tween 20, 5 μM FAD, 1 mM G6P, 30 μM NADP, 0.3 mg/ml MTT, 2 U/ml G6PDH (manufactured by Sigma)) was added. At this time, a substrate was added or not added. In the case where a substrate was added, menadion (manufactured by Sigma) was further added at a final concentration of 50 μM into the reaction solution. After incubation at room temperature for 30 minutes, 75 μl of 2N Na2CO3 was added to terminate the reaction, and an absorbanc at 590 nm was measured. This activity assay was performed in triplicate. The protein content was measured by using a 50-fold dilution of the enzyme solution with a phosphate buffer and MicroBCA protein assay kit. The QR activity was expressed as a QR activity relative to the control and calculated by the following formula.\nQR activity={[(Absorbance in test substance-added section in the presence of substrate)−(Absorbance in test substance-added section in the absence of substrate)]/(Protein content in test substance-added section)}/{[(Absorbance in water-added section in the presence of substrate)−(Absorbance in water-added section in the absence of substrate)]/(Protein content in water-added section)}"}, "[1]": {"tested_on": "Glutathione S-transferase (GST)", "experiment": "Enhancing effect on glutathione S-transferase (GST) activity in Hepa1c1c7 cells", "assay_type": "cell-based", "conditions": "for GST activity (−fold): relative to water control", "description": "Hepa1c1c7 cells (ATCC CRL-2026) were suspended in a Dulbecco-modified Eagle medium (manufactured by Sigma) containing 10% of fetal bovine serum (manufactured by MP Biomedicals Co.) and 1% of penicillin-streptomycin (manufactured by Nacalai Tesque, Inc.) at 4×10^5 cells/ml. To each well of a 96 well-microtiter plate, 0.2 ml of the cell suspension was added, and cultured at 37° C. overnight in the presence of 5% carbon dioxide gas. Then, the medium in the wells was replaced with a Dulbecco-modified Eagle medium. To each well, 0.4 μl of a solution of a test substance in water was added and then cultured for 24 hours. The agarobiose obtained in Preparation Example 1 and a commercially available agaro-oligosaccharide (trade name: Agaoligo, manufactured by Takara Bio Inc., containing agarobiose, agarotetraose, agarohexaose and agarooctaose in 20 to 25% each) were used as test substances. For a negative control, water was added in place of a test substance. After completion of the culture, the medium was removed and the cells were washed with a phosphate buffer. Then, 0.1 ml of a cell-lysis solution (10 mM Tris-HCl (pH 7.4), 38.5 mM KCl, and 1 mM EDTA, 1% NP-40) was added and incubated at 37° C. for 10 minutes to obtain an enzyme solution. To 25 μl of the enzyme solution, 155 μl of a reaction solution (0.13 M potassium phosphate buffer solution (pH 6.5), 1.3 mM glutathione) was added. Immediately before measurement, 20 al of 10 mM of CDNB (2,4-dinitrochlorobenzene, manufactured by TOKYO CHEMICAL INDUSTRY CO., LTD.) as a reaction substrate was added, and a change in an absorbance at 340 nm was measured. This activity assay was performed in triplicate. The protein content was measured by using a 50-fold dilution of the enzyme solution with a phosphate buffer and MicroBCA protein assay kit (manufactured by PIERCE Co.). The GST activity was expressed as a GST activity relative to the control and calculated by the following formula.\nGST activity=(Maximum rate coefficient in test substance-added section/Protein content in test substance-added section)/(Maximum rate coefficient in water-added section/Protein content in water-added section)\nAn effect on a GST activity caused by using DGE obtained in Preparation Example 2 was determined in accordance with Example 1. Each measurement was repeated three times. The GST activity was expressed as a GST activity relative to the control and calculated by the same formula as in Example 1."}, "HL-60 cell": {"tested_on": "HL-60 cell", "experiment": "Cancer cell growth suppressing activity using HL-60 cell", "assay_type": "cell-based", "conditions": "HPLC fraction at retention time 4.05 to 4.16 minutes, found to be DGE", "description": "The neutralized product was subjected to the following normal phase HPLC. Each peak was collected, dried under reduced pressure and then dissolved in water. A cancer cell growth suppressing activity of each fraction was measured using a HL-60 cell."}, "[2]": {"tested_on": "Intracellular Glutathione (GSH)", "experiment": "Enhancing effect on intracellular glutathione (GSH) content in Hepa1c1c7 cells", "assay_type": "cell-based", "conditions": "for GSH content (−fold): 24 hours, relative to water control", "description": "[…] was measured by a partially modified method from a method described in Clarissa Gerhauser et al., Cancer Research 57, 272-278 (1997). Hepa1c1c7 cells were suspended in a Dulbecco-modified Eagle medium containing 10% of fetal bovine serum and 1% of penicillin-streptomycin at 4×10^5 cells/ml. To each well of a 96 well-microtiter plate, 0.2 ml of the cell suspension was added, and cultured at 37° C. overnight in the presence of 5% carbon dioxide gas. Then, the medium in the wells was replaced with a Dulbecco-modified Eagle medium. To each well, 0.4 μl of a solution of a test substance in water was added and then cultured for 24 hours. The agarobiose obtained in Preparation Example 1 and a commercially available agaro-oligosaccharide (trade name: Agaoligo) were used as test substances. For a negative control, water was added in place of a test substance. After completion of the culture, the medium was removed and the cells were washed with a phosphate buffer. The solution was removed, and freeze-thaw of the cells was repeated three times. Thereto was added 0.1 ml of buffer A ([…] sodium phosphate buffer (pH 7.5), 6.3 mM EDTA) to obtain a cell lysate. To 25 it of the cell lysate, 100 al of a reaction solution (25 mM Tris-HCl (pH 7.4), 1 mM G6P, 30 μM NADP, 2 U/ml G6PDH, 0.25 U/ml glutathione reductase (manufactured by Sigma), 0.6 mM DTNB) was added. After incubation at room temperature for 5 minutes, an absorbance at 405 nm was measured. This activity assay was performed in triplicate. At the same time, as a standard, serial 2-fold dilutions of 2 to 200 al of […] were used in place of the cell lysate. The protein content was measured by using a 50-fold dilution of the cell lysate with a phosphate buffer and MicroBCA protein assay kit. The GSH content was expressed as a GSH content relative to the control and calculated by the following formula.\nGSH content=[(GSH content in test substance-added section)/(Protein content in test substance-added section)]/[(GSH content in water-added section)/(Protein content in water-added section)]"}, "[3]": {"conditions": "24 hours, final concentration 100 μM"}, "[4]": {"conditions": "24 hours, final concentration 200 μM"}}, "data": [{"compound": "agarooctaose", "values": [{"measurement": "Fatal cases after oral administration", "setting": "mouse", "value": "no fatal case"}]}, {"compound": "OC[C@H]1O[C@@H](O)[C@H](O)[C@@H](O[C@@H]2O[C@H]3CO[C@@H]([C@@H]2O)[C@@H]3O[C@@H]2O[C@H](CO)[C@H](O)[C@H](O[C@@H]3O[C@H]4CO[C@@H]([C@@H]3O)[C@@H]4O[C@@H]3O[C@H](CO)[C@H](O)[C@H](O[C@@H]4O[C@H]5CO[C@@H]([C@@H]4O)[C@@H]5O)[C@H]3O)[C@H]2O)[C@H]1O", "note": "[Neoogarohexaose, neoagarohexaose, reference compound]", "values": [{"measurement": "Effect on QR activity (in words)", "setting": "Quinone Reductase (QR)", "value": "did not result in a significant increase"}, {"measurement": "QR activity (−fold)", "setting": "Quinone Reductase (QR); final concentration 100 μM", "value": 1.0, "unit": "fold"}, {"measurement": "QR activity (−fold)", "setting": "Quinone Reductase (QR); final concentration 200 μM", "value": 1.1, "unit": "fold"}, {"measurement": "Effect on GST activity (in words)", "setting": "[1]", "value": "did not result in a significant increase"}, {"measurement": "GST activity (−fold)", "setting": "[1]; [3]", "value": 1.1, "unit": "fold"}, {"measurement": "GST activity (−fold)", "setting": "[1]; [4]", "value": 1.1, "unit": "fold"}]}, {"compound": "O=C1C=CC(CO)OC1O", "note": "[DGE, L-glycero-1,5-epoxy-1αβ,6-dihydroxy-cis-hexa-3-en-2-one]", "values": [{"measurement": "Fatal cases after oral administration", "setting": "mouse", "value": "no fatal case"}, {"measurement": "Effect on GST activity (in words)", "setting": "[1]", "value": "significant increase"}, {"measurement": "GST activity (−fold)", "setting": "[1]; final concentration 5 μM", "value": 1.4, "unit": "fold"}, {"measurement": "GST activity (−fold)", "setting": "[1]; final concentration 10 μM", "value": 1.4, "unit": "fold"}, {"measurement": "GST activity (−fold)", "setting": "[1]; final concentration 20 μM", "value": 1.6, "unit": "fold"}, {"measurement": "Cancer cell growth suppressing activity", "setting": "HL-60 cell", "value": "had a cancer cell growth suppressing activity"}]}, {"compound": "OC[C@H]1O[C@@H](O[C@H]2[C@H]3OC[C@@H]2OC(O)[C@H]3O)[C@H](O)[C@@H](O)[C@H]1O", "note": "(mixture of isomers) [Agarobiose, agarobiose]", "values": [{"measurement": "Effect on QR activity (in words)", "setting": "Quinone Reductase (QR)", "value": "significant increase"}, {"measurement": "QR activity (fold vs water control)", "setting": "Quinone Reductase (QR); final concentration 25 μM", "value": 1.4}, {"measurement": "QR activity (fold vs water control)", "setting": "Quinone Reductase (QR); final concentration 50 μM", "value": 1.4}, {"measurement": "QR activity (fold vs water control)", "setting": "Quinone Reductase (QR); final concentration 100 μM", "value": 1.8}, {"measurement": "QR activity (fold vs water control)", "setting": "Quinone Reductase (QR); final concentration 200 μM", "value": 2.2}, {"measurement": "Effect on GSH content (in words)", "setting": "[2]", "value": "significant increase"}, {"measurement": "GSH content (−fold)", "setting": "[2]; final concentration 100 μM", "value": 1.3, "unit": "fold"}, {"measurement": "GSH content (−fold)", "setting": "[2]; final concentration 200 μM", "value": 1.9, "unit": "fold"}, {"measurement": "Fatal cases after oral administration", "setting": "mouse", "value": "no fatal case"}, {"measurement": "Effect on GST activity (in words)", "setting": "[1]", "value": "significant increase"}, {"measurement": "GST activity (−fold)", "setting": "[1]; 24 hours, final concentration 25 μM", "value": 1.4, "unit": "fold"}, {"measurement": "GST activity (−fold)", "setting": "[1]; 24 hours, final concentration 50 μM", "value": 1.5, "unit": "fold"}, {"measurement": "GST activity (−fold)", "setting": "[1]; [3]", "value": 1.9, "unit": "fold"}, {"measurement": "GST activity (−fold)", "setting": "[1]; [4]", "value": 1.9, "unit": "fold"}]}, {"compound": "OC[C@H]1O[C@@H](O[C@H]2[C@H]3OC[C@@H]2O[C@@H](O[C@H]2[C@@H](O)[C@@H](CO)O[C@@H](O[C@H]4[C@H]5OC[C@@H]4OC(O)[C@H]5O)[C@@H]2O)[C@H]3O)[C@H](O)[C@@H](O)[C@H]1O", "note": "(some centres unmarked) [agarotetraose]", "values": [{"measurement": "Fatal cases after oral administration", "setting": "mouse", "value": "no fatal case"}]}, {"compound": "OC[C@H]1O[C@@H](O[C@H]2[C@H]3OC[C@@H]2O[C@@H](O[C@H]2[C@@H](O)[C@@H](CO)O[C@@H](O[C@H]4[C@H]5OC[C@@H]4O[C@@H](O[C@H]4[C@@H](O)[C@@H](CO)O[C@@H](O[C@H]6[C@H]7OC[C@@H]6OC(O)[C@H]7O)[C@@H]4O)[C@H]5O)[C@@H]2O)[C@H]3O)[C@H](O)[C@@H](O)[C@H]1O", "note": "(mixture of isomers) [agarohexaose]", "values": [{"measurement": "Fatal cases after oral administration", "setting": "mouse", "value": "no fatal case"}]}]}
